According to patent US12054746B2, “Method for inducing differentiation of pluripotent stem cells into intestinal epithelial cells” (PUBLIC UNIVERSITY CORPORATION NAGOYA CITY UNIVERSITY, priority 2018, dated 2024):
Like-named read-outs stand apart in the source and are kept apart here.

Key:
human iPS cells = test: Marker gene expression (real-time RT-PCR) after induction of differentiation of human iPS cells into intestinal epithelial cells; type: cell-based
Description: Induction of differentiation of human iPS cells into intestinal epithelial cells was started in a state where undifferentiated colonies of the human iPS cells accounted for about 70% of the culture dish. […] was induced to differentiate into endoderm by culturing for two days in Roswell Park Memorial Institute (RPMI)+Glutamax medium containing 0.5% FBS, 100 ng/mL activin A, 100 units/mL penicillin G, and 100 μg/mL streptomycin and then culturing for one day in RPMI+Glutamax medium, containing 2% FBS, 100 ng/mL activin A, 100 units/ml penicillin G, and 100 μg/mL streptomycin. Then, the cells were cultured in DMEM/F12 containing 2% FBS, 1% Glutamax, and 250 ng/mL FGF2 for 4 days to induce differentiation into intestinal stem cells. After this treatment, Y-27632 (Rho-binding kinase inhibitor) was added so that the concentration was 10 μmol/L, and the cells treated at 37° C. for 60 minutes in a CO2 incubator under the condition of 5% CO2/95% air were treated with actase for detaching. The detached cells were seeded on a 24-well cell culture plate coated with Matrigel which was diluted 30-fold with a human iPS cell culture medium and from which growth factors was removed. […]

[1] = system: intestinal epithelial cell-like cells derived from human iPS cells; test: Drug metabolism experiment (CYP3A4 and UGT activity) in intestinal epithelial cell-like cells derived from human iPS cells; type: cell-based; conditions: experiment 4, FF-1, Forskolin instead of 8-Br-cAMP from day 12 (FIG. 10)
Description: In experiment 3, the FF-1 strain was cultured for 5 days (day 0 to 5) to induce differentiation into endoderm, 4 days (day 5 to 9) to induce differentiation into intestinal stem cells, and 18 days (day 10 to 28) to induce differentiation into intestinal epithelial cells. In experiment 4, the FF-1 strain was cultured for 7 days (day 0 to 7) to induce differentiation into endoderm, 4 days (day 7 to day 11) to induce differentiation into intestinal stem cells, and 18 days (day 12 to day 30) to induce differentiation into intestinal epithelial cells. […]
After completing the differentiation induction, the differentiated cells were cultured at 37° C. in a culture medium (DMEM/F12 containing 1% Glutamax, 1% NEAA, 1% N2 supplement, 100 units/mL penicillin G, 100 μg/mL streptomycin, and 20 ng/mL EGF) containing 5 μmol/L midazolam and 10 μmol/L 7-hydroxycoumarin, and the culture medium was sampled after 24 hours (experiments 3 and 4) or 2 hours (experiment 5). The metabolic activity was calculated from the amount of 1-hydroxymidazolam or 7-hydroxycoumarin glucuronide in the culture medium, which was measured using a liquid chromatography-mass spectrometer (LC-MS/MS). After completing the metabolic experiment, protein quantification was performed, and the metabolic activity was corrected with the amount of protein.

in vitro [2] = conditions: human
Description: (§1) Human iPS cells (FF-1) were treated with a serum-free medium containing 100 ng/mL activin A for 24 hours to initiate differentiation. […] Thereafter, the cells were cultured in Advanced DMEM/F-12 containing 2% FBS, 1% GlutaMax, 100 units/mL penicillin G, 100 μg/mL streptomycin sulfate, and 250 ng/mL FGF2 for 96 hours to differentiate into small intestine stem cells. The small intestine stem cell-like cells after the treatment with activin A and FGF2 were detached with Aecutase and seeded on GFR Matrigel which was diluted 30-fold with human iPS medium in advance. After seeding, the cells were cultured for 19 to 23 days in Advanced DMEM/F-12 containing 2% FBS, 0.1 mM NEAA, 2 mM L-Glu, 100 units/mL penicillin G, 100 μg/mL streptomycin sulfate, 2% B27 supplement, 1% N2 supplement, 1% HepExtend supplement, 20 ng/mL EGF, and 30 μM Forskolin. From 12 to 16 days before the end of differentiation, differentiation into small intestinal epithelial cells was induced was by adding PD98059 to 20 μM, 5-aza-2′-deoxycytidine (5-aza-2′-dC) to 5 μM, and A-83-01 to 0.5 μM.
(§2) HESS (pH 6.5) was added to a chamber on the apical side of human iPS cell-derived small intestinal epithelial cells and Caco-2 cells seeded on Cell culture insert, HBSS (pH 7.4) was added to a chamber on the basal side, and pre-incubated at 37° C. for 60 minutes. […] A sample was collected from the receiver chamber every 15 minutes. The unchanged substance was measured using UPLC-MS/MS. Fa·Fg in humans was referred from, previous reports (References 1 to 6 below). • Reference 1: Takenaka T, Harada N, Kuze J, Chiba M, Iwao T, Matsunaga T. Human small intestinal epithelial cells differentiated from adult intestinal stem cells as a novel system for predicting oral drug absorption in humans. Drug Metab Dispos. […] Expert Opin Drug Metab Toxicol.

in vitro [3] = conditions: human, Caco-2
Description: as §2

[4] = cited from earlier work
[5] = system: human iPS cell-derived small intestinal epithelial cells; test: in vitro
Description: as §1, §2

Caco-2 cells = test: in vitro
Description: as §2

[6] = in humans, from References 1 to 6

Compound | Papp A→B at 60 min (in vitro [2]) [×10⁻⁶ cm/s] | Papp A→B at 60 min (in vitro [3]) [×10⁻⁶ cm/s] | Fa · Fg/100 [4, 6] | further results
C=C[C@@]1(C)CC(=O)[C@]2(O)[C@@]3(C)[C@@H](O)CCC(C)(C)[C@@H]3[C@H](O)[C@H](OC(C)=O)[C@@]2(C)O1 [Forskolin] |  |  |  | effect on the expressions of CYP3A4 and ABCB1/MDR1 (human iPS cells; experiment 1, Windy, compared with 8-Br-cAMP): drastically exceeded that of 8-Br-cAMP; expression level of CYP3A4 and SGLT1 (human iPS cells; experiment 2, Windy, Forskolin alone day 8 to 26, vs 8-Br-cAMP and IBMX in combination (FIG. 5)): significantly increased; CYP3A4 activity [1]: further significant increase
C=CC[C@@H]1/C=C(\C)C[C@H](C)C[C@H](OC)[C@H]2O[C@@](O)(C(=O)C(=O)N3CCCC[C@H]3C(=O)O[C@H](/C(C)=C/[C@@H]3CC[C@@H](O)[C@H](OC)C3)[C@H](C)[C@@H](O)CC1=O)[C@H](C)C[C@@H]2OC [Tacrolimus, tacrolimus] | 14.3 | 12.3 | 0.136 | 
Cc1cc(=O)n(-c2ccccc2)n1C [Antipvrine, antipyrine] | 55.6 |  |  | 
Cn1c(=O)c2c(ncn2C)n(C)c1=O [Caffeine, caffeine] | 52.4 |  |  | 
lucifer yellow |  |  |  | Papp A→B [5]: 0.3 ×10⁻⁶ cm/s; Papp A→B (Caco-2 cells): 0.06 ×10⁻⁶ cm/s; Fa · Fg/100 ([4]; in vivo): 0
CC[C@H]1OC(=O)[C@H](C)[C@@H](O[C@H]2C[C@@](C)(OC)[C@@H](O)[C@H](C)O2)[C@H](C)[C@@H](O[C@@H]2O[C@H](C)C[C@H](N(C)C)[C@H]2O)[C@](C)(O)C[C@@H](C)C(=O)[C@H](C)[C@@H](O)[C@]1(C)O [Erythromycin, erythromycin] | 1.24 | 0.45 |  | 
NS(=O)(=O)c1cc2c(cc1Cl)NCNS2(=O)=O [Hydrochlorothiazide, hydrochlorothiazide] | 4.4 | 2.44 | 0.67 | 
CN(C)C(=N)N=C(N)N [Metformin, metformin] | 2.43 | 0.52 | 0.71 | 
CCOC(=O)[C@H](CCc1ccccc1)N[C@@H](C)C(=O)N1CCC[C@H]1C(=O)O [Enalapril, enalapril] | 1.93 | 0.19 | 0.6 | 
NC(=O)c1ncn([C@@H]2O[C@H](CO)[C@@H](O)[C@H]2O)n1 [Ribavirin, ribavirin] | 3.3 | 0.32 | 0.85 | 
Cc1ncc2n1-c1ccc(Cl)cc1C(c1ccccc1F)=NC2 [Midazolam, midazolam] |  |  | 0.369 | Papp A→B (in vitro [2]): 48.3 ×10⁻⁶ cm/s; Papp A→B (in vitro [3]): 38.7 ×10⁻⁶ cm/s
CCN1CCCC1CNC(=O)c1cc(S(N)(=O)=O)ccc1OC (stereo not shown) [Sulpiride, sulpiride] | 1.45 |  |  | 
CCCC(=O)Nc1ccc(OCC(O)CNC(C)C)c(C(C)=O)c1 (stereo not shown) [Acebutolol, acebutolol] | 2.3 | 0.35 |  | 
